Results on one compound are retold here after patent publication US5411985A, “Gamma-pyrone-3-acetic acid as an inhibitor or interleukin-1 β inventory enzyme” (Merck & Co., Inc., priority 1993, dated 1995).

The structures appear in SMILES notation.

The nature of series [1]: Solubility of isolated material. It counts as physicochemical. As for the experimental part: Compound was isolated further by purification using HPLC. Two mL of filtered solution was passed through a C4 radial compression column (25×100 mm, WATERS ASSOCIATES) and an isocratic flow rate of 10 mL per minute of water was used to elute the active compound. A total of 5 runs were performed with fractions being collected at one minute intervals. The fractions were tested for ICE-activity. The active fractions eluted between 9-10 minutes. The ICE-active-rich cuts from each run were pooled and lyophilized. The resulting material appeared to be an oily brown substance that was soluble in water, methanol, and DMSO. Estimates of 7 mg of compound can be isolated from 300 ml of whole broth.

Series [2] deals with T1, interleukin-1β converting enzyme (ICE) (Homo sapiens, UniProt P29466).
T1 sequence (P29466 120-297 limits assumed): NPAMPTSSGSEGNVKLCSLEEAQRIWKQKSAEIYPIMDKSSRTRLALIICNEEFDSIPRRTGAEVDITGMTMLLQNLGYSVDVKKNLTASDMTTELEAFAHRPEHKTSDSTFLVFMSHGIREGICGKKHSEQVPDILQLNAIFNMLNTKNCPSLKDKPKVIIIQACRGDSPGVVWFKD
T1 sequence (P29466 317-404 limits assumed): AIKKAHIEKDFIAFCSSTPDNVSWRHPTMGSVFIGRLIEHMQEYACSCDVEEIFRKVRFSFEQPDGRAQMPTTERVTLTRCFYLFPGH
Briefly: ICE activity by the procedure of Thornberry et al. (1992). The series is classed as biochemical. As for the experimental part:
Assay for assessing the ICE activity of compound of Formula I
Gamma-pyrone-3-acetic acid was assessed for ICE activity by the procedure of Thomberry, et al (1992) Nature Vol. 356 pp 768-774.

With `O=C(O)Cc1coccc1=O` [Gamma-pyrone-3-acetic acid, gamma-pyrone-3-acetic acid], in series [1] (DMSO), the “solubility in DMSO” value is reported as “soluble”. The solubility in methanol result in series [1] (methanol) was “soluble”. Besides, the solubility in water entry in series [1] (water) is “soluble”. In addition, the IC50 (as a rule, the concentration needed to halve the response being measured) was 1300 nM in series [2] (pH 6.5 and 1 mM DDT); 4540 nM in series [2] (pH 7:5 and 1 mM DDT).
